The values below come from US10245249B2, “Pharmaceutical compositions comprising nitroxyl donors” (Cardioxyl Pharmaceuticals, Inc., priority 2013, dated 2019).

A short description of data set [1]: HNO production determined via N2O quantification (GC headspace analysis). It counts as physicochemical. As to conditions: PBS, 37° C. From the text: Nitrous oxide (N2O) is produced via the dimerization and dehydration of HNO, and is the most common marker for nitroxyl production (Fukuto et al., Chem. Res. Toxicol. 18:790-801 (2005)). […] Using either nitrous oxide gas or Angeli's salt (AS) as a standard, the relative amounts of N2O released from compounds of the disclosure was examined via gas chromatography (GC) headspace analysis.
A procedure for determining the relative amounts of N2O released from compounds of the disclosure is as follows. GC was performed on an Agilent gas chromatograph equipped with a split injector (10:1 splitting), microelectron capture detector, and a HP-MOLSIV 30 m×0.32 mm×25 μm molecular sieve capillary column. Helium was used as the carrier (4 mL/min) gas and nitrogen was used as the make-up (20 mL/min) gas. The injector oven and the detector oven were kept at 200° C. and 325° C., respectively. All nitrous oxide analyses were performed with the column oven held at a constant temperature of 200° C.
All gas injections were made using an automated headspace analyzer. Vial pressurization was 15 psi. The analyzer's sample oven, sampling valve, and transfer line were kept at 40° C., 45° C., and 50° C., respectively. The oven stabilization, vial pressurization, loop fill, loop equilibration, and sample injection times were 1.00 min., 0.20 min., 0.20 min., 0.05 min., and 1.00 min., respectively.
All determinations used a batch of nominal 20 mL headspace vials with volumes pre-measured for sample uniformity (actual vial volume varied by <2.0% relative standard deviation (n=6)). The average vial volume for the batch was determined from six randomly-selected vials by calculating the weight difference between the capped and sealed empty (i.e., air-filled) vial and the capped and sealed deionized water-filled vial using the known density of deionized water, then averaging. Blanks were prepared by sealing and capping two vials then purging each for 20 seconds with a gentle argon stream. Nitroxyl standards were prepared by sealing and capping four vials then purging each for 1 minute with a gentle stream, from a gas cylinder, of a 3000 ppm […].
CXL-1020 (N-hydroxy-2-methanesulfonylbenzene-1-sulfonamide) “standards” were prepared by, in duplicate, accurately weighing 10±0.5 mg of CXL-1020 and adding it to each 4 mL vial. Using an auto pipette, 1 mL of argon-purged anhydrous DMF (Sigma-Aldrich) was added to each 4 mL vial to form a CXL-1020 stock solution for each sample and the vials were capped and shaken and/or sonicated to insure complete dissolution upon visual observation. Using an auto pipette, 20 mL vials were charged with 5 mL of PBS (purged for at least 30 min. with argon prior to use), purged with argon for at least 20 sec., and sealed with a rubber septum. Using a 50 μL syringe, 50 μL of the CXL-1020 stock solution was injected into each 20 mL vial containing the PBS.
Samples were prepared as follows. In duplicate, 18±1 mg of each sample was accurately weighed into each 4 mL vial. Using an auto pipette, 1 mL of argon-purged anhydrous DMF was added to each 4 mL vial to form a sample stock solution for each sample and the vials were capped and shaken and/or sonicated to insure complete sample dissolution upon visual observation. Using an auto pipette, 20 mL vials were charged with 5 mL of PBS (purged for at least 30 min. with argon prior to use), purged with argon for at least 20 sec., and sealed with a rubber septum. The vials were equilibrated for at least 10 min. at 37° C. in a dry block heater. Thereafter, using a 50 μL syringe, 50 μL of a sample stock solution was injected into each 20 mL vial containing the PBS. The vials were then held at 37° C. in the dry block heater for a time period such that the sum of the time spent in the dry block heater plus the time spent in the automated headspace analyzer oven before sample injection equaled the desired incubation time. […]

Data set [2] can be described thus: In vitro stability (half-life) in dog plasma. The data set is classed as in vitro ADME. As to conditions: dog plasma pH 7.4 with anticoagulant, 37° C.; for half-life at 5 μM: male, dog, plasma, pH 7.4, 5 μM, read-out: T1/2 (minutes) Dog. How it is done:
(§1) Certain compounds from Tables 1 and 2 and CXL-1020 were tested for their stability in phosphate buffered saline (PBS) and plasma. The assay system comprised (i) PBS, or plasma from rat, dog or human (at least 3 donors, male, pooled) at pH 7.4, and (ii) for tests conducted in plasma, an anticoagulant (sodium heparin or sodium citrate). Each test compound (5 μM) was incubated in PBS or plasma at 37° C. on a THERMOMIXER® with shaking. Three samples (n=3) were taken at each of seven sampling time points: 0, 10, 30, 60, 90, 180 and 360 minutes. The samples were immediately combined with 3 volumes (i.e., 3 times the volume of PBS or plasma) of acetonitrile containing 1% formic acid and an internal standard to terminate the reaction. AB SCIEX API 3000 LC-MS/MS analysis of the test compounds was performed without a standard curve. Half-lives (T1/2) of the test compounds were determined from graphs of the percent remaining values using the peak area response ratio. For compounds tested multiple times, the value provided in the Table represents an average of the replicate assays.

Data set [3] can be described thus: In vitro stability (half-life) in phosphate buffered saline (PBS) pH 7.4. It counts as physicochemical. As to conditions: pH 7.4, 5 μM, PBS pH 7.4, 37° C., read-out: T1/2 (minutes) PBS. How it is done: as §1
Data set [4] in a line: In vitro stability (half-life) in human plasma. It counts as in vitro ADME. As to conditions: male, human plasma pH 7.4 with anticoagulant, 37° C., read-out: T1/2 (minutes) Human. As for the experimental part: as §1
Data set [5] can be described thus: In vitro stability (half-life) in rat plasma. It counts as in vitro ADME. As to conditions: rat plasma pH 7.4 with anticoagulant, 37° C.; for T1/2 (minutes) Rat: 5 μM; for half-life at 5 μM: male, rat, plasma, pH 7.4, 5 μM, read-out: T1/2 (minutes) Rat. As for the experimental part:
as §1

Some results are limits rather than exact numbers.

As to `CS(=O)(=O)c1cc(S(=O)(=O)NO)cs1` [Compound 8, N-Hydroxy-5-methanesulfonylthiophene-3-sulfonamide], the “Relative N2O Yield (90 minutes incubation)” value in data set [1] came out at 77%. Moreover, the values for the half-life at 5 μM in data set [2] and in data set [3] were 27 min and 42 min, respectively.
For the molecule `O=S(=O)(NO)c1cccc(OC(F)(F)F)c1` [Compound 92, N-Hydroxy-3-(trifluoromethoxy)benzene-1-sulfonamide], the half-life at 5 μM in data set [4] is 40 min; in data set [5] it was 35 min; in data set [2], 19 min; in data set [3], 58 min. Moreover, in data set [1], the “Relative N2O Yield (90 minutes incubation)” value was found to be 59%. In addition, the “T1/2 (minutes) Rat” value in data set [5] came out at 35.1 min. In data set [2] (5 μM), the “T1/2 (minutes) Dog” value was found to be 18.5 min.
`Cc1cc(S(=O)(=O)NO)c(C(F)(F)F)o1` [Compound 7, N-Hydroxy-5-methyl-2-(trifluoromethyl)furan-3-sulfonamide]: the “Relative N2O Yield (90 minutes incubation)” value in data set [1] was 51%. In addition, the results for the half-life at 5 μM in data set [2] and in data set [3] were 56 min and 224 min, respectively.
`CS(=O)(=O)c1ccc(S(=O)(=O)NO)cc1` [Compound 93, N-Hydroxy-4-methanesulfonylbenzene-1-sulfonamide]: the half-life at 5 μM in data set [4] was found to be 35 min; in data set [5], 38 min; in data set [3] it was 68 min. The “Relative N2O Yield (90 minutes incubation)” value in data set [1] is reported as 86%.
Take `O=S(=O)(NO)c1cccc(S(=O)(=O)NO)c1` [Compound 88, 1-N,3-N-Dihydroxybenzene-1,3-disulfonamide]: in data set [1], the “Relative N2O Yield (90 minutes incubation)” value was 53% and the “Relative N2O Yield (360 minutes incubation)” value turned out to be 100%. Also, in data set [2], the half-life at 5 μM came out at 16 min. In data set [3], the half-life at 5 μM was 38 min.
Consider `Cc1noc(C)c1S(=O)(=O)NO` [Compound 27, N-Hydroxy-3,5-dimethyl-1,2-oxazole-4-sulfonamide], for which the half-life at 5 μM in data set [4] stood at 99 min. In data set [1], the “Relative N2O Yield (90 minutes incubation)” value turned out to be 35.5% and the “Relative N2O Yield (360 minutes incubation)” value is 66%. Moreover, the “T1/2 (minutes) Rat” value in data set [5] came to 75 min.
For `Cc1ccc(F)cc1S(=O)(=O)NO` [Compound 90, 5-Fluoro-N-hydroxy-2-methylbenzene-1-sulfonamide], in data set [1], the “Relative N2O Yield (90 minutes incubation)” value is 90%. The results for the half-life at 5 μM in data set [5], in data set [2] and in data set [3] were 6.8 min, 21 min and 25.1 min, respectively.
Consider `CC(C)NC(=O)c1cc(S(=O)(=O)NO)cs1` [Compound 5, 4-(Hydroxysulfamoyl)-N-(propan-2-yl)thiophene-2-carboxamide], for which the half-life at 5 μM was 24 min in data set [4], 104 min in data set [5], 28 min in data set [2] and 136 min in data set [3]. Moreover, in data set [1], the “Relative N2O Yield (90 minutes incubation)” value is recorded as 48%. For the same molecule, the “Relative N2O Yield (360 minutes incubation)” value in data set [1] turned out to be 72%.
Take `Cc1oncc1S(=O)(=O)NO` [Compound 3, N-Hydroxy-5-methyl-1,2-oxazole-4-sulfonamide]: the half-life at 5 μM in data set [4] is 71 min; in data set [5], 37 min; in data set [2], 38 min; in data set [3], 98 min. Moreover, the “Relative N2O Yield (90 minutes incubation)” value in data set [1] is 45%. For the same molecule, in data set [1], the “Relative N2O Yield (360 minutes incubation)” value amounted to 56%.
With `O=C(c1ccc(S(=O)(=O)NO)s1)N1CCOCC1` [Compound 21, N-Hydroxy-5-(morpholine-4-carbonyl)thiophene-2-sulfonamide], in data set [1], the “Relative N2O Yield (90 minutes incubation)” value was 73.5%. Further, the half-life at 5 μM in data set [5] stood at 36 min; in data set [3], 39 min.
In the case of `O=S(=O)(NO)c1ccc(F)c(Cl)c1` [Compound 87, 3-Chloro-4-fluoro-N-hydroxybenzene-1-sulfonamide], in data set [1], the “Relative N2O Yield (90 minutes incubation)” value is on record as 53%. In data set [1], the “Relative N2O Yield (360 minutes incubation)” value is recorded as 79%. For the same molecule, the half-life at 5 μM in data set [5] came to 49 min; in data set [2] it was 24 min; in data set [3] it was 101 min.
`CC(=O)N1CCc2cc(Br)c(S(=O)(=O)NO)cc21` [Compound 9, 1-Acetyl-5-bromo-N-hydroxy-2,3-dihydro-1H-indole-6-sulfonamide]: in data set [1], the “Relative N2O Yield (90 minutes incubation)” value is 53%. The “Relative N2O Yield (360 minutes incubation)” value in data set [1] was found to be 71%. The values for the half-life at 5 μM in data set [5] and in data set [3] were greater than 360 min and 2 min, respectively.
Turning to `O=S(=O)(NO)c1cccnc1` [Compound 26, N-Hydroxypyridine-3-sulfonamide], the half-life at 5 μM was 45 min in data set [4], 29 min in data set [5] and 53 min in data set [3]. In addition, in data set [1], the “Relative N2O Yield (90 minutes incubation)” value is listed as 73.5%.
Turning to `O=S(=O)(NO)c1cccc(Br)c1` [Compound 89, 3-Bromo-N-hydroxybenzene-1-sulfonamide], the half-life at 5 μM in data set [5] is 38.4 min; in data set [2], 34 min; in data set [3], 76 min.
For the molecule `Cc1ccc(F)c(S(=O)(=O)NO)c1` [Compound 56, 2-Fluoro-N-hydroxy-5-methylbenzene-1-sulfonamide], in data set [1], the “Relative N2O Yield (90 minutes incubation)” value was 72% and the “Relative N2O Yield (360 minutes incubation)” value was determined as 78%. Also, the half-life at 5 μM in data set [5] worked out at 8 min. Besides, the half-life at 5 μM in data set [3] was 34 min.
For `O=[N+]([O-])c1cc(S(=O)(=O)NO)sc1Cl` [Compound 47, 5-Chloro-N-hydroxy-4-nitrothiophene-2-sulfonamide], in that order: 58%, 70%, less than 5 min and 11 min.
Regarding `Cc1noc(C)c1S(=O)(=O)NO` [Compound 91, N-Hydroxy-3,5-dimethyl-1,2-oxazole-4-sulfonamide], in data set [5], the “T1/2 (minutes) Rat” value was 176 min. In addition, the half-life at 5 μM in data set [2] amounted to 54.4 min; in data set [3], 211 min.
